Experimental data published in US8252810B2, “Bicycloamine derivatives” (Eisai R&D Management Co., Ltd., priority 2008, dated 2012).
pIC50: −log10 of the molar value. Counter-ions that a name gives are not always drawn.

Columns and labels:
[1] = system: sodium channels in cultured rat hippocampus; details: Patent document 1, Example 129; cited from earlier work
[2] = system: ectopic firing; details: as described in Patent document 1, Example 129; cited from earlier work
[3] = target: T1, human Nav1.8 (Homo sapiens, UniProt Q9Y5Y9); assay: Pharmacological effects on TTX-resistant Na channels in cells expressing human Nav1.8 gene (membrane potential dye, deltamethrin stimulation); type: cell-based
T1 construct: expressed in transfected cells
T1 sequence (Q9Y5Y9 whole entry): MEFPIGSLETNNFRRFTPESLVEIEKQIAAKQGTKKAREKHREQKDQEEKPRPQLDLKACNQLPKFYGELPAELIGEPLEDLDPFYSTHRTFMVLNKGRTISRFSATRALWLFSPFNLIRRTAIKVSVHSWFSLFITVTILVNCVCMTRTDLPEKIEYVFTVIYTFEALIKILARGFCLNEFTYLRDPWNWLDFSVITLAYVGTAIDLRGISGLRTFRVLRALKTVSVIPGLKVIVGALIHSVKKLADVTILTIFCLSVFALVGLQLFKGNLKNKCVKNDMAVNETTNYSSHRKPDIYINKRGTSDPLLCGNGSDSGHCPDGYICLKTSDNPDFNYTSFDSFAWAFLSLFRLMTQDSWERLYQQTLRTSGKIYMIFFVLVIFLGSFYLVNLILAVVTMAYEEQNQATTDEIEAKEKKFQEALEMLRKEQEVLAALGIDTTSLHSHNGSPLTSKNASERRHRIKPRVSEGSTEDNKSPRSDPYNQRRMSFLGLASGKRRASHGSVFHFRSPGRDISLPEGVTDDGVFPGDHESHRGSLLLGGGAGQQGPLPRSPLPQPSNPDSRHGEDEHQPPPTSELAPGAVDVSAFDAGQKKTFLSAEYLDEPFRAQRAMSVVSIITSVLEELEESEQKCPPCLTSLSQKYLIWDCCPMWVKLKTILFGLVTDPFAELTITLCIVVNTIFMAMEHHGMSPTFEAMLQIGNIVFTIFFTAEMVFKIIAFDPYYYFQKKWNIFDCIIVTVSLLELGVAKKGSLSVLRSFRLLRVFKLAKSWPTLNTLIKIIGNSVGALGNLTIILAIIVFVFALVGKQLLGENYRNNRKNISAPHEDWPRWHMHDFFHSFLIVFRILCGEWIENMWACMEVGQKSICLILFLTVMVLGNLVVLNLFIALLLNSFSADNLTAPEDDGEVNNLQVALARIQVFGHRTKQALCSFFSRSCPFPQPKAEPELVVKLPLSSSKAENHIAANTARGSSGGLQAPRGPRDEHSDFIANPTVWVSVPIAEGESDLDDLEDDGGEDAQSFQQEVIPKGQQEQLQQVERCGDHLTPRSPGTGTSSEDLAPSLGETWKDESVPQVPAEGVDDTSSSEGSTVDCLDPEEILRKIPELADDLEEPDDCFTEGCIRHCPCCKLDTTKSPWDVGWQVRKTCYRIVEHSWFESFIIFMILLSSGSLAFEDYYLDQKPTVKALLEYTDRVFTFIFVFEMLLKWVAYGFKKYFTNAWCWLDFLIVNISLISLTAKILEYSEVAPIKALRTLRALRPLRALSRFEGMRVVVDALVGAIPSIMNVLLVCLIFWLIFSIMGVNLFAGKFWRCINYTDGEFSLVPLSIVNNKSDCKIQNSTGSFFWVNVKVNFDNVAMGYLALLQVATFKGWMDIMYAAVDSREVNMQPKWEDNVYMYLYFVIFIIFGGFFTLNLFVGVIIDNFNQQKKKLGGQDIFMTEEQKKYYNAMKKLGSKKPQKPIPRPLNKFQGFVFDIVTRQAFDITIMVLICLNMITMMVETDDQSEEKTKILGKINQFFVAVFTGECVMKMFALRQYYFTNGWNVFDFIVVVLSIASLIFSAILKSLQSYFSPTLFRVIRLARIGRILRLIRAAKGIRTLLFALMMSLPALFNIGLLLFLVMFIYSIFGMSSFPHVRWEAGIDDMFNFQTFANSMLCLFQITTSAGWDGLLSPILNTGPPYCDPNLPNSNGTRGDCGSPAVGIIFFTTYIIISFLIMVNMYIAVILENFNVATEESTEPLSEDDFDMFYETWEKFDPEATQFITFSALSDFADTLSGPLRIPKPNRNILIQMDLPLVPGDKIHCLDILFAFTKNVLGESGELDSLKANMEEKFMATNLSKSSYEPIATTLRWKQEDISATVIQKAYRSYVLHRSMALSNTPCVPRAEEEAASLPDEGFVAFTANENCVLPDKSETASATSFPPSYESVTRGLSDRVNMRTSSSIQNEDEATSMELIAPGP
Method: Pharmacological Effects on TTX-Resistant Na Channels in Cells Expressing Human Nav1.8 Gene
A cell line expressing human Nav1.8 gene was used to evaluate the pharmacological effects of compounds of the invention.
. A membrane potential-sensitive dye containing TTX (final concentration: 0.25 μM) was added to cells expressing human Nav1.8, prior to incubation at 37° C. for 30-60 minutes. • 2. The test compound was added to the cells, and the mixture was stationed for 15-30 minutes at room temperature while shielded from light. • 3. Deltamethrin (final concentration: 50 μM), a Nav1.8 channel stimulant, was added, and the change in fluorescence intensity due to increased membrane potential was measured. Pharmacological Evaluation
The Nav1.8 channel inhibition of the test compound was determined by the following equation. […] Test Results

## O=c1[nH]cccc1CN1CC2CCCC(C1)C2/C=C/c1ccccc1F (stereo not shown)
[1]
  inhibitory activity against sodium channels: has an inhibitory activity
[2]
  inhibitory activity against ectopic firing: inadequate

## CCn1c(C)nc(=O)n(C[C@H](O)CN2[C@@H]3CC[C@H]2C[C@@H](OCc2ccccc2CF)C3)c1=O [Example 66, (Endo)-1-ethyl-3-{(R)-3-[3-(2-fluoromethylbenzyloxy)-8-azabicyclo[3.2.1]oct-8-yl]-2-hydroxypropyl}-6-methyl-1H-[1,3,5]triazine-2,4-dione oxalate]
[3]
  pIC50: 5.27

## CNCCCN1c2ccccc2CCc2ccccc21 [desipramine]
[3]; 30 μM desipramine, reference for complete inhibition under deltamethrin stimulation
  Nav1.8 channel inhibition: completely inhibits
